What all share (type): functional, cell-based
In experiment [1] the test system is Caco-2. Nature of the experiment: Antiproliferative activity against human Caco-2 cells assessed as inhibition of cell growth incubated for 24 hrs by MTT assay. To be noted: Caco-2, 24 h.
Experiment [2] relates to HT-29. Nature of the experiment: Antiproliferative activity against human HT-29 cells assessed as inhibition of cell growth incubated for 24 hrs by MTT assay. To be noted: HT-29, 24 h.
Experiment [3] deals with DLD-1. Nature of the experiment: Antiproliferative activity against human DLD-1 cells assessed as inhibition of cell growth incubated for 24 hrs by MTT assay. To be noted: DLD-1, 24 h. Background: Tetrazolium assays rely on reduction of a dye to a coloured formazan, in cell work by metabolically active cells.
A short description of experiment [4]: Antiproliferative activity against human Tera-1 cells assessed as inhibition of cell growth incubated for 24 hrs by MTT assay. To be noted: Tera-1, 24 h.
The test system of experiment [5] is A 172. The experiment can be described thus: Antiproliferative activity against human A-172 cells assessed as inhibition of cell growth incubated for 24 hrs by MTT assay. To be noted: A 172, 24 h.
Experiment [6] has as its system A549. The experiment can be described thus: Antiproliferative activity against human A549 cells assessed as inhibition of cell growth incubated for 24 hrs by MTT assay. To be noted: A549, 24 h.

Some results are limits rather than exact numbers.

In the case of `CCCn1c(SCCc2c[nH]c3ccccc23)nnc1-c1ccncc1`, the IC50 in experiment [1], in experiment [2], in experiment [3], in experiment [4], in experiment [5] and in experiment [6] was more than 30 µM throughout.

In the case of `Clc1ccc(-n2c(SCCc3c[nH]c4ccccc34)nnc2-c2ccncc2)cc1`, the IC50 – broadly, the point on the concentration scale where inhibition reaches its midpoint – in experiment [1] was 25 µM; in experiment [2], more than 30 µM; in experiment [3], 21.8 µM; in experiment [4] it was more than 30 µM; in experiment [5], 23.3 µM; in experiment [6] it was 18.7 µM.

Take `CCCCn1c(SCCc2c[nH]c3ccccc23)nnc1-c1ccncc1`: the IC50 in experiment [1], in experiment [2], in experiment [3], in experiment [4], in experiment [5] and in experiment [6] was more than 30 µM each time.

Take `Brc1ccccc1-n1c(SCCc2c[nH]c3ccccc23)nnc1-c1ccncc1`: the half-inhibitory concentration (IC50) is more than 30 µM in experiment [1]; more than 30 µM in experiment [2]; more than 30 µM in experiment [3]; more than 30 µM in experiment [4]; more than 30 µM in experiment [5]; 4 µM in experiment [6].

With `c1ccc(Cn2c(SCCc3c[nH]c4ccccc34)nnc2-c2ccncc2)cc1`, the IC50 in experiment [1] was more than 30 µM; in experiment [2] it was more than 30 µM; in experiment [3] it was 25.8 µM; in experiment [4] it was 10.7 µM; in experiment [5], 8.1 µM; in experiment [6] it was 13.9 µM.

Turning to `C=CCn1c(SCCc2c[nH]c3ccccc23)nnc1-c1ccncc1`, the IC50 in experiment [1], in experiment [2], in experiment [3], in experiment [4], in experiment [5] and in experiment [6] was more than 30 µM each time.

As to `c1ccc(-n2c(SCCc3c[nH]c4ccccc34)nnc2-c2ccncc2)cc1`, the IC50 is more than 30 µM in experiment [1]; more than 30 µM in experiment [2]; 19 µM in experiment [3]; more than 30 µM in experiment [4]; 26.8 µM in experiment [5]; more than 30 µM in experiment [6].

Turning to `Clc1cccc(-n2c(SCCc3c[nH]c4ccccc34)nnc2-c2ccncc2)c1`, the IC50 in experiment [1] is 13.5 µM; in experiment [2], 7.3 µM; in experiment [3], 11 µM; in experiment [4], more than 30 µM; in experiment [5], more than 30 µM; in experiment [6], more than 30 µM.

Consider `O=c1[nH]cc(F)c(=O)[nH]1` [FLUOROURACIL], for which the IC50 in experiment [2] is 5.31 µM.

For `O=[N+]([O-])c1ccc(-n2c(SCCc3c[nH]c4ccccc34)nnc2-c2ccncc2)cc1`, the IC50 in experiment [1] is more than 30 µM; in experiment [2], more than 30 µM; in experiment [3] it was more than 30 µM; in experiment [4], more than 30 µM; in experiment [5], 16.9 µM; in experiment [6] it was more than 30 µM.

As for `Cc1cccc(C)c1-n1c(SCCc2c[nH]c3ccccc23)nnc1-c1ccncc1`, the IC50 in experiment [1], in experiment [2], in experiment [3], in experiment [4], in experiment [5] and in experiment [6] was more than 30 µM in each case.

Regarding `Brc1cccc(-n2c(SCCc3c[nH]c4ccccc34)nnc2-c2ccncc2)c1`, the IC50 in experiment [1] was determined as 10.5 µM; in experiment [2], 12.2 µM; in experiment [3] it was 15.3 µM; in experiment [4], 24.6 µM; in experiment [5], 14.7 µM; in experiment [6] it was 14.5 µM.

On to `Cc1ccc(-n2c(SCCc3c[nH]c4ccccc34)nnc2-c2ccncc2)cc1`, for which the IC50 in experiment [1] was 17.8 µM; in experiment [2] it was more than 30 µM; in experiment [3], 16.5 µM; in experiment [4] it was more than 30 µM; in experiment [5], 20.3 µM; in experiment [6], 13.5 µM.

Regarding `Cc1ccccc1-n1c(SCCc2c[nH]c3ccccc23)nnc1-c1ccncc1`, the IC50 in experiment [1], in experiment [2], in experiment [3], in experiment [4], in experiment [5] and in experiment [6] was more than 30 µM throughout.

Consider `Fc1ccc(-n2c(SCCc3c[nH]c4ccccc34)nnc2-c2ccncc2)cc1`, for which the IC50 was 10.3 µM in experiment [1]; 5.8 µM in experiment [2]; 10.6 µM in experiment [3]; more than 30 µM in experiment [4]; more than 30 µM in experiment [5]; 8.09 µM in experiment [6].

The record behind these values is ChEMBL document CHEMBL5257059, “Pyridine-Based 1,2,4-Triazolo-Tethered Indole Conjugates Potentially Affecting TNKS and PI3K in Colorectal Cancer” (ACS Med Chem Lett, 2023).
